System: ternary complex of FKBP12 and DCAF1
Test: co-immunoprecipitation of DCAF1 with HA-FKBP12 in HEK293T cells (ternary complex)
Assay type: cell-based
Details: 5 μM, 2 h
Protocol: (A) Left, western blots showing effects of YT47R and YT47S on the immunoprecipitation (IP) of FLAG-DCAF1-WT or FLAG-DCAF1-C1113A with HA-FKBP12 in HEK293T cells co-expressing these proteins. Cells were treated with YT47R or YT47S (5 μM) for 2 h in the presence of MG132 (10 μM) prior to lysis and IP with an anti-HA antibody and western blotting for the indicated proteins (DCAF1, FKBP12, and ubiquitinated protein). Right, bar graphs quantifying DCAF1 (top) and ubiquitination (Ub) (bottom) in the indicated IP groups. (B) Left, western blots showing effects of YT47R and YT47S on the IP of endogenous DCAF1 with HA-FKBP12 in HEK293T cells expressing HA-FKBP12. Cells were treated with YT47R or YT47S (5 μM) for 2 h in the presence of MG132 (10 μM) prior to lysis and IP with an anti-HA antibody and western blotting for the indicated proteins (DCAF1, FKBP12). Right, bar graph quantifying DCAF1 in the indicated IP groups. For (A, B), data are mean values±SEM for three independent experiments. Statistical significance was calculated with unpaired two-tailed Student's t-tests comparing YT41R/YT47R- and DMSO-treated cells. **P<0.01, ****P<0.0001. (C) MS-ABPP quantification of IA-DTB labeling of the indicated cysteines in DCAF1 from FLAG-DCAF1-WT-expressing HEK293T cells treated with the indicated concentrations of YT47R (3 h) relative to cells treated with DMSO. Data represent average values±SEM from four independent experiments. Statistical significance was calculated with unpaired two-tailed Student's t-tests comparing compound to DMSO treated cells. *P<0.1.
Finally, we investigated whether electrophilic PROTACs induce a stable ternary complex of FKBP12 with DCAF1 and promote FKBP12 ubiquitination. […] A ternary complex was not observed in cells expressing the DCAF1-C1113A mutant (FIG. 6A), supporting that YT47R induces this complex through site-specifically reacting with C1113. […] In considering possible reasons why this ternary complex formation with endogenous DCAF1 was insufficient to support the degradation of recombinantly expressed FKBP12 (FIG. 4A), we speculate that our current PROTACs (YT41R, YT47R) may require further improvements in cellular properties to enable robust targeted protein degradation mediated by physiological concentrations of DCAF1.

C=CC(=O)N1C[C@H](c2ccc(C(=O)NCCOCCOCCOCCNC(=O)COc3cccc([C@@H](CCc4ccc(OC)c(OC)c4)OC(=O)[C@@H]4CCCCN4C(=O)C(=O)C(C)(C)CC)c3)cc2)[C@@H]1C(=O)Nc1cccc2cccnc12 [YT47R]
ternary complex of FKBP12 and DCAF1 (FLAG-DCAF1-WT, in the presence of MG132 (10 μM)): clear evidence of a ternary complex | ternary complex of endogenous DCAF1 with HA-FKBP12 (HEK293T expressing HA-FKBP12 only, MG132, compared to YT47S or DMSO): more robust ternary complex | ternary complex of FKBP12 and DCAF1 (cells expressing the DCAF1-C1113A mutant, MG132): not observed
